Source: patent US20260035696A1, “COMBINATION TREATMENT FOR CANCER” (THE UNIVERSITY OF CHICAGO, priority 2022, published 2026)

Test system: IκBα phosphorylation and nuclear RELA in 3×KD BM-MDSCs
Assay: Immunoblot of NF-κB signaling in 3×KD BM-MDSCs co-cultured with LPS
Format: cell-based, mouse
Settings: 3×KD (Adrb2, Metrnl, Smpdl3b) BM-MDSCs, LPS 5 min
Source text: FIGS. 15A-15I show YTHDF2 degrades Adrb2, Metrnl, and Smpdl3b transcripts and thereby activates NF-κB signaling in MDSCs. (FIG. 15A) MDSCs were sorted from MC38 tumors in WT, WT+IR, Ythdf2-cKO, Ythdf2-cKO+IR mice and subjected to qPCR analysis of Adrb2, Metrnl and Smpdl3b mRNA level. (FIG. 15B) Graphs showing enrichment of Adrb2, Metrnl and Smpdl3b mRNA in the YTHDF2-immunoprecipitated RNA fraction of bone marrow-derived MDSCs, determined by RIP-qPCR. (FIG. 15C) MDSCs were sorted from bone marrow-derived cells from WT and Ythdf2-cKO mice and were treated with actinomycin D. mRNA was collected at indicated time points after treatment and mRNA levels of Adrb2, Metrnl and Smpdl3b were measured by RT-qPCR. […] Three days after IR, the number of tumor-infiltrating CD45.1^+CD11b^+Ly6C^hi cells was determined. […] The attached cells on the transwell membrane were visualized under a light microscope and quantified. […] Three days after IR, the number of tumor-infiltrating Ccr2^+CD11b^+Ly6C^hi cells was determined. […]
FIGS. 29A-29M show YTHDF2 degrades Adrb2, Metrnl, and Smpdl3b transcripts and thereby activates NF-κB signaling in MDSCs. […] P values were calculated by a nonparametric Wilcoxon-Mann-Whitney test. […] Metrnl and Smpdl3b mRNA in the YTHDF2-immunoprecipitated RNA fraction of bone marrow-derived MDSCs, determined by RIP-qPCR. […]

increase of IκBα phosphorylation and nuclear localization of RELA in knockdown MDSCs: prevented this increase
SMILES: Cc1ccc(S(=O)(=O)/C=C/C#N)cc1 [BAY 11-7082]
